Data on 2 molecules can be found in publication PMC10186366 (ACS Pharmacology & Translational Science, 2023).

Some results are limits rather than exact numbers.

The IC50 is the concentration that inhibits the measured activity by half.

Assay [1] has as its system SHMT2 (mitochondrial C1 metabolism) in KB tumor cells. Description: Targeted metabolomics flux analysis with [2,3,3-2H]serine in KB cells. Type of assay: cell-based, human. The note with it: 0.1 μM compound, 250 μM [2,3,3-2H]serine, versus vehicle-treated cells. The text has this: Serine is catabolized in the mitochondria via SHMT2, which converts serine to glycine and 5,10-methylene THF, the latter of which is metabolized by MTHFD2 to 10-CHOTHF and by MTHFD1L to formate (Figure 7).
The cells were processed for liquid chromatography–mass spectrometry (LC–MS) analysis of total serine and glycine, and deuterated serine (M + 3, M + 2, M + 1, and M + 0 serine, where M + n represents species with n deuterium atoms) and glycine (M + 1 and M + 0) isotopomers. The results are shown in Figure 8 and are compared to those for control (vehicle-treated) cells (labeled “N/A”).
Figure 8 Metabolomics flux analysis with [2,3,3-^2H]serine to assay mitochondrial C1 metabolism via SHMT2. (A) A schematic of [2,3,3-^2H]serine metabolism is shown. Heavy (^2H) atoms in serine (colored circles) are metabolized via SHMT2 initially followed by MTHFD2 and MTHFD1L to formate. (B, C) Total serine and glycine and the distribution of the serine (M + n, n = 0−3) and glycine (n = 0 or 1) isotopomers are shown. The loss of M + 3 serine corresponding to the metabolism of [2,3,3-^2H]serine to M + 1 glycine is a direct measure of SHMT2 activity in the cells.[45] Experimental methods are described in the Experimental Section. Results are shown as mean values plus/minus standard deviations (n = 3). *P < 0.05; **P < 0.01. […]
KB cells (1 × 10[6]) were seeded in each of three 60 mm dishes in folate-, serine-, and glycine-free RPMI1640 supplemented with 10% DFBS, 1% penicillin/streptomycin, 2 mM L-glutamine, 285 μM serine, 130 μM glycine, and 2 nM leucovorin. […] The targeted metabolites were quantitatively determined using the AB Sciex QTRAP 6500 LC–MS/MS system. […] Isotopomers were detected using multiple reaction monitoring (MRM) at the positive ionization mode. […] Absolute metabolite concentrations were calculated from calibration curves and then normalized to total protein concentrations measured from the postextraction pellet (solubilized in 0.5 N NaOH) using the Folin-phenol method.[53] […] To correct for multiple comparisons, adjusted p values were determined using Holm’s method.

Assay [2] concerns D4 CHO cells (expresses only human FRβ). As to conditions: 96 h; mean (standard error); previously published; cited from earlier work.
The test system of assay [3] is PC43-10 CHO cells (expresses only human RFC). As to conditions: 96 h; mean (standard error); previously published; cited from earlier work.

As for `Nc1nc2sc(CCCc3ccc(C(=O)N[C@@H](CCC(=O)O)C(=O)O)cc3)cc2c(=O)[nH]1` [Compound 1], the “Increase in M + 3 serine” value in assay [1] was 2–4 fold. In addition, the IC50 in assay [2] was 112 nM; in assay [3], greater than 1000 nM.
In the case of `Nc1nc2sc(CCCc3ccc(C(=O)N[C@@H](CCC(=O)O)C(=O)O)c(F)c3)cc2c(=O)[nH]1` [Compound 6, (4-(3-(2-Amino-4-oxo-3,4-dihydrothieno[2,3-d]pyrimidin-6-yl)propyl)-2-fluorobenzoyl)-L-glutamic Acid], the “Increase in M + 3 serine” value in assay [1] was 2–4 fold.
